Laboratory results taken from ChEMBL document CHEMBL3271937, “Isoquinolines. 6. Potential central nervous system antitumor agents. Nitrogen mustards of 3-amino-4-(p-aminophenyl)isoquinoline” (J Med Chem, 1977).
Calls of active or inactive are those of the source. No cut-off for these calls is given here.

Columns and labels:
[1] = Octanol-water partition coefficient, log P of the compound; format: physicochemical
L1210 = experiment: Antitumor activity against mouse L1210 cells allografted in mouse assessed as tumor growth inhibition at 400 mg/kg, ip; format: functional, organism-based; set-up: dose 400 mg/kg
Mus musculus [2] = experiment: Toxicity in mouse allografted with mouse L1210 cells at 25 to 400 mg/kg, ip; format: organism-based; set-up: dose 25-400 mg/kg, route intraperitoneal; conditions: in vivo
Mus musculus [3] = experiment: Toxicity in mouse allografted with mouse L1210 cells at 200 mg/kg, ip; format: organism-based; set-up: dose 200 mg/kg, route intraperitoneal; conditions: in vivo

| Compound | logP [1] | TGI (L1210) | Activity (Mus musculus [2]) | Activity (Mus musculus [3]) |
| --- | --- | --- | --- | --- |
| Nc1ccc(-c2c(N)ncc3ccccc23)cc1 | 2.58 | – | – | – |
| Nc1ncc2ccccc2c1-c1ccc(NC(=O)CN(CCCl)CCCl)cc1 | – | inactive | Non-toxic | – |
| CC(=O)Nc1ncc2ccccc2c1-c1ccc(NC(=O)CN(CCCl)CCCl)cc1 | 3.87 | inactive | Non-toxic | – |
| CCNc1ncc2ccccc2c1-c1ccc(NC(=O)CCN(CCCl)CCCl)cc1.Cl | 7.43 | inactive | – | Toxic |
| CC(=O)Nc1nc(Br)c2ccccc2c1-c1ccc(N(CCCl)CCCl)cc1.Cl | – | inactive | Non-toxic | – |
| CC(=O)Nc1ncc2ccccc2c1-c1ccc(N(CCCl)CCCl)cc1 | – | inactive | Non-toxic | – |
| CC(=O)Nc1ncc2ccccc2c1-c1ccc(NC(=O)CCN(CCCl)CCCl)cc1 | – | inactive | Non-toxic | – |
